Reference: ChEMBL document CHEMBL1201862, “PubChem BioAssay data set” (2004)
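Tested at 5 concentrations; 48 h exposure; 96-well plates; endpoints linearly interpolated, else capped at highest concentration. GI50 marks 50% less growth.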 The source made the active and inactive calls. No stated cut-off is given here; in the data, active = GI50 up to about 1.1 µM and inactive = higher.

What was measured:
Test in all cases: NCI anticancer screen, dose series, 48 h
[1] = test system: CCRF-CEM
[2] = test system: HCC 2998
[3] = test system: CAKI-1
[4] = test system: SN12C
[5] = test system: PC-3
[6] = test system: A549
[7] = test system: UACC-62
[8] = test system: SK-OV-3
[9] = test system: OVCAR-5
[10] = test system: MDA-MB-231
[11] = test system: NCI/ADR-RES
[12] = test system: HL-60
[13] = test system: SNB-19
[14] = test system: NCI-H460
[15] = test system: Malme-3M
[16] = test system: DU-145
[17] = test system: HOP-92
[18] = test system: SW-620

Measured: GI50

CC(C)(C)OC(=O)N/N=C(/N)c1ccccc1
inactive: [1] > 100 µM | [2] > 100 µM | [3] > 100 µM | [4] > 100 µM | [5] > 100 µM | [6] > 100 µM | [7] > 100 µM | [8] > 100 µM | [9] > 100 µM | [10] > 100 µM | [11] > 100 µM | [12] 6.55 µM | [13] > 100 µM | [14] > 100 µM | [15] > 100 µM | [16] > 100 µM

CC(=O)O/C=C1/C[C@H]2[C@@H]3CCC4CC(C(C)=O)CC[C@]4(C)[C@H]3CC[C@]2(C)C1=O (stereo partly specified)
inactive: [1] 29.1 µM | [17] 41 µM | [2] > 100 µM | [3] > 100 µM | [4] > 100 µM | [5] > 100 µM | [18] > 100 µM | [7] > 100 µM | [8] > 100 µM | [9] > 100 µM | [10] > 100 µM | [12] 11.9 µM | [13] 53.2 µM | [14] > 100 µM | [15] > 100 µM | [16] > 100 µM

Cc1ccc(NC(=O)C(=O)CC(=O)c2c(C)[n+]([O-])c3ccccc3[n+]2[O-])cc1
inactive: [1] 20.1 µM | [17] 21.9 µM | [2] 44 µM | [3] 79.1 µM | [4] 36.5 µM | [18] 33.7 µM | [6] 31 µM | [7] 17.7 µM | [8] 73.1 µM | [9] 40.6 µM | [12] 19.3 µM | [13] 54.1 µM | [14] 27.9 µM | [15] 27.9 µM

COc1ccc(O[C@H](COCc2ccccc2)C[C@@H]2COC(C)(C)O2)cc1
inactive: [1] > 100 µM | [2] > 100 µM | [3] > 100 µM | [4] > 100 µM | [5] > 100 µM | [18] > 100 µM | [6] > 100 µM | [7] > 100 µM | [8] > 100 µM | [9] > 100 µM | [10] > 100 µM | [11] > 100 µM | [13] > 100 µM | [14] > 100 µM | [15] > 100 µM | [16] > 100 µM

CCOC(=O)CCCc1cc(O)c2c(C)c3[nH]c4ccc(Cl)cc4c3c(C)c2n1
inactive: [1] 42.5 µM | [17] 22 µM | [2] 44.4 µM | [3] 24.9 µM | [4] 27.3 µM | [5] 28.8 µM | [18] 32.2 µM | [6] 19.6 µM | [9] 82.6 µM | [10] 23.9 µM | [11] 23.4 µM | [12] 24 µM | [13] 23.7 µM | [14] 16.5 µM | [15] 24 µM | [16] 23.8 µM

O=C(/N=N/c1cccc(Cl)c1)NNc1cccc(Cl)c1
inactive: [1] 18.2 µM | [2] 14.7 µM | [3] 18.1 µM | [4] 11.7 µM | [5] 8.97 µM | [18] 16.2 µM | [6] 24.5 µM | [7] 9.25 µM | [9] 15.8 µM | [10] 23.2 µM | [12] 16.7 µM | [13] 20.8 µM | [14] 15.5 µM | [15] 16.7 µM | [16] 17.5 µM

Cc1ccc(N(C)S(=O)(=O)c2ccccc2[N+](=O)[O-])cc1
inactive: [3] 48.2 µM | [4] 83 µM | [5] 19 µM | [18] 58.3 µM | [6] 39.6 µM | [9] 65.5 µM | [10] 41 µM | [11] 37.5 µM | [12] > 100 µM | [13] 64.9 µM | [14] 32.5 µM | [15] 33.2 µM | [16] 98.4 µM
